Measurements published in patent US20250114345A1, “COMPOUNDS AND COMPOSITIONS AS CBP/P300 DEGRADERS AND USES THEREOF” (Oncopia Therapeutics, Inc. d/b/a/ SK Life Science Labs, priority 2023, published 2025).

Target: T1, p300 (Homo sapiens, UniProt Q09472)
T1 construct: host or cells: A549 P300 HiBit cells
Assay: P300 degradation, HiBit technology in A549 P300 HiBit cells (2 h)
Assay type: cell-based
Conditions: 2 hrs post treatment; for Dmax: A549, A549 P300 HiBit cells; for DC50: A549 P300 HiBit cells
How it was run: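 Degradation potency and Dmax came from luminescence after 10 min room-temperature lysis with HiBit detection buffer. Beforehand, HiBit-tagged A549 lines received serial compound dilutions (10 mM DMSO stocks) at 37 °C, 5% CO2. CBP cells were read at 24 h, p300 cells at 2 h.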

T1 sequence (Q09472 whole entry): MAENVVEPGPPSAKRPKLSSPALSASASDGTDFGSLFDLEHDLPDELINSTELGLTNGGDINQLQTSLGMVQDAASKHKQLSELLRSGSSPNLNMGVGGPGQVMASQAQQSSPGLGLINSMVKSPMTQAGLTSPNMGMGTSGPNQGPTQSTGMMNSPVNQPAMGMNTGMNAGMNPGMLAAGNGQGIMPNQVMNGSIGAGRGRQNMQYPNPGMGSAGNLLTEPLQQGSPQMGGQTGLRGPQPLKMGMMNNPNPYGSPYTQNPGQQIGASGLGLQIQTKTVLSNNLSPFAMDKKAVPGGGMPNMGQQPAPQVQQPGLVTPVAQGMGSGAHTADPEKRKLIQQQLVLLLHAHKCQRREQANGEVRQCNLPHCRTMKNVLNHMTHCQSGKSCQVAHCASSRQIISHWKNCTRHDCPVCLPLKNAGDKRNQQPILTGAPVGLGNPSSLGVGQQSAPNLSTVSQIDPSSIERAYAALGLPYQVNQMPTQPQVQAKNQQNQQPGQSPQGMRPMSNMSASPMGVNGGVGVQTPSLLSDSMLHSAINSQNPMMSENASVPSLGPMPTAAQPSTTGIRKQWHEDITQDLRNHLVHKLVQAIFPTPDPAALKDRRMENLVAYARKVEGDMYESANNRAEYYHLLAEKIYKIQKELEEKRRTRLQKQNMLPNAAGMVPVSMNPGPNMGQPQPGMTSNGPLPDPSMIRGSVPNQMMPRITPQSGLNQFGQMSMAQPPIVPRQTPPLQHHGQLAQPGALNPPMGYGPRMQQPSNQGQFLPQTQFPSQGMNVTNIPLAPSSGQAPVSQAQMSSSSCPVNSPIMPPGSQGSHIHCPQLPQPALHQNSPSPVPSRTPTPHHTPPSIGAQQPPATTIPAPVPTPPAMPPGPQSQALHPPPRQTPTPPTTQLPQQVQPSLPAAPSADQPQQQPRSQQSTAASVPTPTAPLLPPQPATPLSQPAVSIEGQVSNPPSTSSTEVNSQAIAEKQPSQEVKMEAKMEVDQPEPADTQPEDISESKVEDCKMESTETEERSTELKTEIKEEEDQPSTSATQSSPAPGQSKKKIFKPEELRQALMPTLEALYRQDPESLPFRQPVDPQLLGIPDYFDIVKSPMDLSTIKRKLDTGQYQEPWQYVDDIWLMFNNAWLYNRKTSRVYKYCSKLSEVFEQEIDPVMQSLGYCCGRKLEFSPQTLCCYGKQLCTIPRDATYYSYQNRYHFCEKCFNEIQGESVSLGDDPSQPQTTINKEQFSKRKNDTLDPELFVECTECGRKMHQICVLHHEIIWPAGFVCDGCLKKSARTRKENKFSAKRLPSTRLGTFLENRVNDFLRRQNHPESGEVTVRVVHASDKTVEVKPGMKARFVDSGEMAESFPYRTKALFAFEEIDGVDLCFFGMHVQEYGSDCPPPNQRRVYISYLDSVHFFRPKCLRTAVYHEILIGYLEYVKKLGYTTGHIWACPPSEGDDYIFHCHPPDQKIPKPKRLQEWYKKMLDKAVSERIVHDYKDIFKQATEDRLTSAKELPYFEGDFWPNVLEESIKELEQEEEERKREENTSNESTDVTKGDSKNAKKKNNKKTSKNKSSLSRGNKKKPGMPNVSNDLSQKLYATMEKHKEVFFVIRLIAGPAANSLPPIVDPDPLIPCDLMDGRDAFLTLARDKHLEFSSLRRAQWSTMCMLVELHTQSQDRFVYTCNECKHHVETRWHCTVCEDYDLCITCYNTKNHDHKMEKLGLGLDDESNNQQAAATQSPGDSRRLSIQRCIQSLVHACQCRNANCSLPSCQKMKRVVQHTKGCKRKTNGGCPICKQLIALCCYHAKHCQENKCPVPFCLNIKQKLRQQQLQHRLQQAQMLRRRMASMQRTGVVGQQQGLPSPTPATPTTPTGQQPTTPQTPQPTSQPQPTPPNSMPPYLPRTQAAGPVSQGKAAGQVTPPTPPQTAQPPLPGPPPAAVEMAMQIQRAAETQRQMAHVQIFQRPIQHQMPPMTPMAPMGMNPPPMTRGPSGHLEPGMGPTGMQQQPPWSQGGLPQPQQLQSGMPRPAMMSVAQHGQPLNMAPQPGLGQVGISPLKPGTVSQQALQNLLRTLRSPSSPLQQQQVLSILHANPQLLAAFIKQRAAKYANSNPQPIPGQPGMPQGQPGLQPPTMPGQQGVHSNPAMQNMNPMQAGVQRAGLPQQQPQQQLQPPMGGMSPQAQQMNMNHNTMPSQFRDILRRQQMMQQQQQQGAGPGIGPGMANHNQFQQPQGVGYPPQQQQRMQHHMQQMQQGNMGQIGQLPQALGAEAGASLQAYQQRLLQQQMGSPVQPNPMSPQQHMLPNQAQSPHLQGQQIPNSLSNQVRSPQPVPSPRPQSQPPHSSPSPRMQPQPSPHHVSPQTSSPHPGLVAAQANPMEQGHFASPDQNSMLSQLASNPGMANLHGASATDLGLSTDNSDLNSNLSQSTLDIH

SMILES	Dmax	DC50
CCc1cc(-c2cccc3cc(-c4ccc(C(=O)NCC#Cc5cc6c(cnn6C6CCC(=O)NC6=O)cc5C)nc4)ncc23)c2cc(C)c(=O)n(C)c2c1 (centres unmarked) [Example B3, N-(3-(1-(2,6-Dioxopiperidin-3-yl)-5-methyl-1H-indazol-6-yl)prop-2-yn-1-yl)-5-(8-(7-ethyl-1,3-dimethyl-2-oxo-1,2-dihydroquinolin-5-yl)isoquinolin-3-yl)picolinamide]	20 to 39%	10 to 99 nM
Cc1cc(-c2ncc(N(C)c3cc(C(C)C)c4c(c3)n(C)c(=O)n4C)cn2)cnc1C(=O)NCC#Cc1ccc2occ(C3CCC(=O)NC3=O)c2c1 (centres unmarked) [Example A156, N-(3-(3-(2,6-dioxo-piperidin-3-yl)benzofuran-5-yl)prop-2-yn-1-yl)-5-(5-((7-isopropyl-1,3-dimethyl-2-oxo-2,3-dihydro-1H-benzo [d]imidazol-5-yl)(methyl)amino)pyrimidin-2-yl)-3-methylpicolinamide]	> 80%	1 to 9.9 nM
Cn1c(=O)n(C)c2c(C3CCS(=O)(=O)CC3)nc(-c3cccc4cc(-c5ccc(C(=O)NCC#Cc6ccc7occ(C8CCC(=O)NC8=O)c7c6)nc5)ncc34)cc21 (centres unmarked) [Example A123, 5-(8-(4-(1,1-dioxido-tetrahydro-2H-thiopyran-4-yl)-1,3-dimethyl-2-oxo-2,3-dihydro-1H-imidazo [4,5-c]pyridin-6-yl)isoquinolin-3-yl)-N-(3-(3-(2,6-dioxopiperidin-3-yl)benzofuran-5-yl)prop-2-yn-1-yl)picolinamide]	60 to 79%	1 to 9.9 nM
CC(C)c1cc(-c2cccc3cc(-c4ccc(C(=O)NCC#Cc5cc6c(c(NC7CCC(=O)NC7=O)c5)OCC6)nc4)ncc23)cc2c1n(C)c(=O)n2C (centres unmarked) [Example A32, N-(3-(7-((2,6-Dioxopiperidin-3-yl)amino)-2,3-dihydrobenzofuran-5-yl)prop-2-yn-1-yl)-5-(8-(7-isopropyl-1,3-dimethyl-2-oxo-2,3-dihydro-1H-benzo[d]imidazol-5-yl)isoquinolin-3-yl)picolinamide]	> 80%	1 to 9.9 nM
Cc1cc(-c2ncc(N(C)c3cc(C4CCOCC4)cc4c3cc(C)c(=O)n4C)nn2)cnc1C(=O)NCC#Cc1ccc2occ(C3CCC(=O)NC3=O)c2c1 (centres unmarked) [Example B135, 5-(6-((1,3-dimethyl-2-oxo-7-(tetrahydro-2H-pyran-4-yl)-1,2-dihydroquinolin-5-yl) (methyl)amino)-1,2,4-triazin-3-yl)-N-(3-(3-(2,6-dioxopiperidin-3-yl)benzofuran-5-yl)prop-2-yn-1-yl)-3-methylpicolinamide]	< 20%	> 1000 nM
Cc1cc(-c2ncc(N(C)c3cc(C(C)C)c4c(c3)n(C)c(=O)n4C)cc2F)cnc1C(=O)NCC#Cc1ccc2occ(C3CCC(=O)NC3=O)c2c1 (centres unmarked) [Example A153, N-(3-(3-(2,6-dioxo-piperidin-3-yl)benzofuran-5-yl)prop-2-yn-1-yl)-3-fluoro-5-((7-iso-propyl-1,3-dimethyl-2-oxo-2,3-dihydro-1H-benzo[d]imidazol-5-yl)(methyl)amino)-5′-methyl-[2,3′-bipyridine]-6′-carboxamide]	> 80%	1 to 9.9 nM
CC(C)c1cc(-c2cccc3cc(-c4ccc(C(=O)NCC#Cc5cc6c(cn5)cnn6C5CCC(=O)NC5=O)nc4)ncc23)cc2c1n(C)c(=O)n2C (centres unmarked) [Example A6, N-(3-(1-(2,6-Dioxopiperidin-3-yl)-1H-pyrazolo[4,3-c]pyridin-6-yl)prop-2-yn-1-yl)-5-(8-(7-isopropyl-1,3-dimethyl-2-oxo-2,3-dihydro-1H-benzo[d]imidazol-5-yl)isoquinolin-3-yl)picolinamide]	60 to 79%	1 to 9.9 nM
CC(C)c1cc(N2CCCc3cc(-c4ccc(C(=O)NCC#Cc5ccc6occ(C7CCC(=O)NC7=O)c6c5)nc4)c(F)cc32)cc2c1n(C)c(=O)n2C (centres unmarked) [Example A117, N-(3-(3-(2,6-dioxo-piperidin-3-yl)benzofuran-5-yl)prop-2-yn-1-yl)-5-(7-fluoro-1-(7-isopropyl-1,3-dimethyl-2-oxo-2,3-dihydro-1H-benzo [d]imidazol-5-yl)-1,2,3,4-tetrahydro-quinolin-6-yl)picolinamide]	> 80%	1 to 9.9 nM
CN(c1cnc(-c2ccc(C(=O)NCC#Cc3cc4c(C5CCC(=O)NC5=O)cccc4o3)nc2)nc1)c1cc(C2CCOCC2)c2c(c1)n(C)c(=O)n2C (centres unmarked) [Example A229, 5-(5-((1,3-dimethyl-2-oxo-7-(tetrahydro-2H-pyran-4-yl)-2,3-dihydro-1H-benzo[d]imidazol-5-yl)(methyl)amino)pyrimidin-2-yl)-N-(3-(4-(2,6-dioxo-piperidin-3-yl)benzofuran-2-yl)prop-2-yn-1-yl)picolinamide]	> 80%	< 1 nM
COc1cc(-c2ccc(N(C)c3cc(C(C)C)c4c(c3)n(C)c(=O)n4C)cn2)cnc1C(=O)NCC#Cc1cccc(NC2CCC(=O)NC2=O)c1 (centres unmarked) [Example A49, N-(3-(3-((2,6-dioxopiperidin-3-yl)amino)phenyl)prop-2-yn-1-yl)-5-((7-isopropyl-1,3-dimethyl-2-oxo-2,3-dihydro-1H-benzo [d]imidazol-5-yl) (methyl)amino)-5′-methoxy-[2,3′-bipyridine]-6′-carboxamide]	> 80%	10 to 99 nM
COc1cc(C#CCNC(=O)c2ccc(-c3cc4cccc(-c5cc(C(C)C)c6c(c5)n(C)c(=O)n6C)c4cn3)cn2)cc2c1cnn2C1CCC(=O)NC1=O (centres unmarked) [Example A26, N-(3-(1-(2,6-Dioxopiperidin-3-yl)-4-methoxy-1H-indazol-6-yl)prop-2-yn-1-yl)-5-(8-(7-isopropyl-1,3-dimethyl-2-oxo-2,3-dihydro-1H-benzo[d]imidazol-5-yl)isoquinolin-3-yl)picolinamide]	60 to 79%	10 to 99 nM
Cc1cc(=O)n(C)c2cc(C3CCOCC3)cc(N3CCCc4nc(-c5ccc(C(=O)NCC#Cc6ccc7occ(C8CCC(=O)NC8=O)c7c6)nc5)ncc43)c12 (centres unmarked) [Example B80, 5-(5-(1,4-dimethyl-2-oxo-7-(tetrahydro-2H-pyran-4-yl)-1,2-dihydroquinolin-5-yl)-5,6,7,8-tetrahydropyrido[3,2-d]pyrimidin-2-yl)-N-(3-(3-(2,6-dioxopiperidin-3-yl)benzofuran-5-yl)prop-2-yn-1-yl)picolinamide]	< 20%	> 1000 nM
CCc1cc(-c2cccc3cc(-c4ccc(C(=O)NCC#Cc5ccc6cnn(C7CCC(=O)NC7=O)c6c5)nc4)ncc23)c2c(n1)N(C)C(=O)N(C)C2 (centres unmarked) [Example B13, N-(3-(1-(2,6-Dioxopiperidin-3-yl)-1H-indazol-6-yl)prop-2-yn-1-yl)-5-(8-(7-ethyl-1,3-dimethyl-2-oxo-1,2,3,4-tetrahydropyrido[2,3-d]pyrimidin-5-yl)isoquinolin-3-yl)picolinamide]	> 80%	1 to 9.9 nM
Cc1cc2c(N3CCCc4nc(-c5ccc(C(=O)NCC#Cc6ccc7c(c6)N(C6CCC(=O)NC6=O)CCCC7)nc5)ncc43)cc(C3CCOCC3)cc2n(C)c1=O (centres unmarked) [Example B57, 5-(5-(1,3-dimethyl-2-oxo-7-(tetrahydro-2H-pyran-4-yl)-1,2-dihydroquinolin-5-yl)-5,6,7,8-tetrahydropyrido[3,2-d]pyrimidin-2-yl)-N-(3-(1-(2,6-dioxopiperidin-3-yl)-2,3,4,5-tetrahydro-1H-benzo[b]azepin-8-yl)prop-2-yn-1-yl) picolinamide]	< 20%	> 1000 nM
Cc1cc2c(N3CCCc4nc(-c5ccc(C(=O)NCC#Cc6ccc7occ(C8(C)CCC(=O)NC8=O)c7c6)nc5)ncc43)cc(C3CCOCC3)cc2n(C)c1=O (centres unmarked) [Example B85, 5-(5-(1,3-dimethyl-2-oxo-7-(tetrahydro-2H-pyran-4-yl)-1,2-dihydroquinolin-5-yl)-5,6,7,8-tetrahydropyrido[3,2-d]pyrimidin-2-yl)-N-(3-(3-(3-methyl-2,6-dioxopiperidin-3-yl)benzofuran-5-yl)prop-2-yn-1-yl)picolinamide]	< 20%	> 1000 nM
CCc1cc(N(C)c2ccc(-c3cnc(C(=O)NCC#Cc4cccc(NC5CCC(=O)NC5=O)c4)c(C)c3)c(F)c2)c2cc(C)c(=O)n(C)c2c1 (centres unmarked) [Example B19, N-(3-(3-((2,6-Dioxopiperidin-3-yl)amino)phenyl)prop-2-yn-1-yl)-5-(4-((7-ethyl-1,3-dimethyl-2-oxo-1,2-dihydroquinolin-5-yl)(methyl)amino)-2-fluorophenyl)-3-methylpicolinamide]	> 80%	10 to 99 nM
Cc1cc2c(N3CCCc4cc(-c5ccc(C(=O)NCC#Cc6ccc7occ(C8CCC(=O)NC8=O)c7c6)nc5)c(F)cc43)cc(C(C)C)cc2n(C)c1=O (centres unmarked) [Example B134, N-(3-(3-(2,6-dioxopiperidin-3-yl)benzofuran-5-yl)prop-2-yn-1-yl)-5-(7-fluoro-7′-isopropyl-1′,3′-dimethyl-2′-oxo-1′,2′,3,4-tetrahydro-2H-[1,5′-biquinolin]-6-yl)picolinamide]	> 80%	10 to 99 nM
Cc1cc2c(N3CCCc4cc(-c5ccc(C(=O)NCC#Cc6cc7c(C8CCC(=O)NC8=O)cccc7o6)nc5)nnc43)cccc2n(C)c1=O (centres unmarked) [Example B34, 5-(8-(1,3-dimethyl-2-oxo-1,2-dihydroquinolin-5-yl)-5,6,7,8-tetrahydropyrido[2,3-c]pyridazin-3-yl)-N-(3-(4-(2,6-dioxopiperidin-3-yl)benzofuran-2-yl)prop-2-yn-1-yl)picolinamide]	> 80%	< 1 nM
Cc1nc2c(N3CCCc4nc(-c5ccc(C(=O)NCC#Cc6ccc7occ(C8CCC(=O)NC8=O)c7c6)nc5)ncc43)cc(C3CCOCC3)cc2n(C)c1=O (centres unmarked) [Example B78, 5-(5-(1,3-dimethyl-2-oxo-7-(tetrahydro-2H-pyran-4-yl)-1,2-dihydroquinoxalin-5-yl)-5,6,7,8-tetrahydropyrido[3,2-d]pyrimidin-2-yl)-N-(3-(3-(2,6-dioxopiperidin-3-yl)benzofuran-5-yl)prop-2-yn-1-yl)picolinamide]	< 20%	> 1000 nM
